Results from PubChem BioAssay AID248 (DTP/NCI, 2004).
Several values for one entry are separate records, joined by “and”; a condition that tells them apart may be missing. Equal entries are not always repeated. Toxic doses and inconclusive results are not listed. No stated cut-off is given here; in the data, active means T/C of 150% or more; inactive means T/C below 125%.

Tested on: L1210 leukemia ip in BDF1 mice, survival T/C
Test: NCI In Vivo Anticancer Drug Screen. Data for tumor model L1210 Leukemia (intraperitoneal) in B6D2F1 (BDF1) mice
Settings: endpoint: mean survival time, higher = longer survival
How it was run: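 Tumor was transplanted into mice, which were then dosed with test compound or vehicle alone. Survival was recorded for each group, and the treated figure was expressed relative to the control figure.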

[1] = dose: 20.0 mg/kg/injection, schedule: Q01DX001 (ip), vehicle: saline
[2] = dose: 100.0 mg/kg/injection, schedule: Q01DX001 (ip), vehicle: carboxymethylcellulose (CMC)
[3] = dose: 200.0 mg/kg/injection, schedule: Q01DX001 (ip), vehicle: carboxymethylcellulose (CMC)
[4] = dose: 400.0 mg/kg/injection, schedule: Q01DX001 (ip), vehicle: carboxymethylcellulose (CMC)
[5] = dose: 100.0 mg/kg/injection, schedule: Q01DX009 (ip), vehicle: Klucel (hydroxypropylcellulose) (HPC)
[6] = dose: 100.0 mg/kg/injection, schedule: Q04DX003 (ip), vehicle: Klucel (hydroxypropylcellulose) (HPC)
[7] = dose: 200.0 mg/kg/injection, schedule: Q04DX003 (ip), vehicle: Klucel (hydroxypropylcellulose) (HPC)
[8] = dose: 400.0 mg/kg/injection, schedule: Q01DX009 (ip), vehicle: Klucel (hydroxypropylcellulose) (HPC)
[9] = dose: 400.0 mg/kg/injection, schedule: Q04DX003 (ip), vehicle: Klucel (hydroxypropylcellulose) (HPC)
[10] = dose: 100.0 mg/kg/injection, schedule: Q04DX003 (ip), vehicle: carboxymethylcellulose (CMC)
[11] = dose: 200.0 mg/kg/injection, schedule: Q04DX003 (ip), vehicle: carboxymethylcellulose (CMC)
[12] = dose: 200.0 mg/kg/injection, schedule: Q01DX001 (ip), vehicle: saline
[13] = dose: 400.0 mg/kg/injection, schedule: Q01DX001 (ip), vehicle: saline
[14] = dose: 100.0 mg/kg/injection, schedule: Q04DX002 (ip), vehicle: saline with Tween-80
[15] = dose: 100.0 mg/kg/injection, schedule: Q04DX003 (ip), vehicle: saline with Tween-80
[16] = dose: 200.0 mg/kg/injection, schedule: Q04DX002 (ip), vehicle: saline with Tween-80
[17] = dose: 200.0 mg/kg/injection, schedule: Q04DX003 (ip), vehicle: saline with Tween-80
[18] = dose: 400.0 mg/kg/injection, schedule: Q04DX002 (ip), vehicle: saline with Tween-80
[19] = dose: 400.0 mg/kg/injection, schedule: Q04DX003 (ip), vehicle: saline with Tween-80
[20] = dose: 100.0 mg/kg/injection, schedule: Q01DX009 (ip), vehicle: saline
[21] = dose: 200.0 mg/kg/injection, schedule: Q01DX009 (ip), vehicle: Klucel (hydroxypropylcellulose) (HPC)
[22] = dose: 100.0 mg/kg/injection, schedule: Q04DX003 (ip), vehicle: saline
[23] = dose: 200.0 mg/kg/injection, schedule: Q04DX003 (ip), vehicle: saline

Measured: T/C

COc1ccc(C(=O)C(C)CC(=O)O)cc1OC (stereo unspecified)
inactive: dose: 75.0 mg/kg/injection, schedule: Q01DX009 (ip), vehicle: Klucel (hydroxypropylcellulose) (HPC) 102 % of control | dose: 150.0 mg/kg/injection, schedule: Q01DX009 (ip), vehicle: Klucel (hydroxypropylcellulose) (HPC) 94 % of control | dose: 300.0 mg/kg/injection, schedule: Q01DX009 (ip), vehicle: Klucel (hydroxypropylcellulose) (HPC) 91 % of control

C[N+](C)(C)CCC[N+]1(C)CC2C3CCCCC3=C3CCCCC3C2C1 (stereo unspecified)
inactive: dose: 5.0 mg/kg/injection, schedule: Q01DX001 (ip), vehicle: saline 95 % of control | dose: 10.0 mg/kg/injection, schedule: Q01DX001 (ip), vehicle: saline 98 % of control | [1] 101 % of control

O=S(=O)(NCCCl)c1cc(Cl)c(Cl)cc1Cl
inactive: [2] 97 % of control | [3] 94 % of control | [4] 94 % of control

COc1cc(C2N(c3ccccc3)CCN2c2ccccc2)cc(OC)c1OC
inactive: [5] 97 % of control | [6] 90 % of control | [7] 93 % of control | [8] 94 % of control | [9] 95 % of control

Nc1ccccc1C(=O)ONC(=O)c1ccccc1
inactive: [10] 97 % of control | [11] 93 % of control | dose: 400.0 mg/kg/injection, schedule: Q04DX003 (ip), vehicle: carboxymethylcellulose (CMC) 92 % of control

CC(C)(C)OC(=O)c1ccc(C#N)cc1
inactive: [2] 96 % of control | [3] 100 % of control | [4] 100 % of control

O=S1ON=C(c2ccccc2)N1c1ccccc1Cl (stereo unspecified)
inactive: [6] 93 % of control | [7] 93 % of control | [9] 88 % of control

COC1OC(COC(=O)c2ccc([N+](=O)[O-])cc2)C(OCc2ccccc2)C1OC(=O)c1ccc([N+](=O)[O-])cc1 (stereo unspecified)
inactive: dose: 50.0 mg/kg/injection, schedule: Q01DX001 (ip), vehicle: saline 113 % of control | dose: 100.0 mg/kg/injection, schedule: Q01DX001 (ip), vehicle: saline 105 % of control | [12] 116 % of control | [13] 105 % of control

C=CCc1ccc(OC(=O)Nc2cc(Cl)ccc2C)c(OC)c1
inactive: dose: 100.0 mg/kg/injection, schedule: Q01DX001 (ip), vehicle: saline with Tween-80 93 % of control | dose: 100.0 mg/kg/injection, schedule: Q01DX009 (ip), vehicle: saline with Tween-80 106 % of control and 87 % of control | [14] 101 % of control and 92 % of control | [15] 103 % of control | dose: 200.0 mg/kg/injection, schedule: Q01DX001 (ip), vehicle: saline with Tween-80 97 % of control | dose: 200.0 mg/kg/injection, schedule: Q01DX009 (ip), vehicle: saline with Tween-80 101 % of control and 87 % of control | [16] 95 % of control and 97 % of control | [17] 101 % of control | dose: 400.0 mg/kg/injection, schedule: Q01DX001 (ip), vehicle: saline with Tween-80 92 % of control | dose: 400.0 mg/kg/injection, schedule: Q01DX009 (ip), vehicle: saline with Tween-80 101 % of control and 102 % of control | [18] 95 % of control and 98 % of control | [19] 101 % of control

CC1(C)N=C(N)N=C(N)N1c1ccc(OCC(=O)N2CCOCC2)c(Cl)c1
inactive: dose: 12.5 mg/kg/injection, schedule: Q01DX009 (ip), vehicle: saline 98 % of control | dose: 25.0 mg/kg/injection, schedule: Q01DX009 (ip), vehicle: saline 98 % of control | dose: 50.0 mg/kg/injection, schedule: Q01DX009 (ip), vehicle: saline 95 % of control | [20] 101 % of control

O=C(Nc1ccc(Cl)c(Cl)c1)OCn1ncc2ccc([N+](=O)[O-])cc21
inactive: [12] 96 % of control | [13] 100 % of control

CN/N=C1\CCC2C3CCc4cc(O)ccc4C3CCC12C (stereo unspecified)
inactive: [5] 95 % of control | [21] 89 % of control

Cc1ccc(C(=O)N/N=C/c2c(O)ccc3ccccc23)cc1
inactive: dose: 100.0 mg/kg/injection, schedule: Q04DX002 (ip), vehicle: Klucel (hydroxypropylcellulose) (HPC) 89 % of control | dose: 200.0 mg/kg/injection, schedule: Q04DX002 (ip), vehicle: Klucel (hydroxypropylcellulose) (HPC) 89 % of control | dose: 400.0 mg/kg/injection, schedule: Q04DX002 (ip), vehicle: Klucel (hydroxypropylcellulose) (HPC) 96 % of control

C=CC(=O)N1CCOCC1
inactive: [15] 113 % of control | [17] 100 % of control | [19] 108 % of control

CCCCCCCCCCCCC(O)C(=O)O (stereo unspecified)
inactive: [6] 95 % of control | [7] 95 % of control | [9] 94 % of control

Cc1nonc1-c1nc(SCC(=O)NN)n[nH]1
inactive: dose: 25.0 mg/kg/injection, schedule: Q04DX002 (ip), vehicle: Klucel (hydroxypropylcellulose) (HPC) 102 % of control | dose: 50.0 mg/kg/injection, schedule: Q04DX002 (ip), vehicle: Klucel (hydroxypropylcellulose) (HPC) 98 % of control

COC(=O)CNC(=O)C(Cc1ccc(OCc2ccccc2)cc1)NC(=O)OC(C)(C)C (stereo unspecified)
inactive: [20] 98 % of control | [22] 93 % of control | dose: 200.0 mg/kg/injection, schedule: Q01DX009 (ip), vehicle: saline 106 % of control | [23] 97 % of control | dose: 400.0 mg/kg/injection, schedule: Q01DX009 (ip), vehicle: saline 96 % of control | dose: 400.0 mg/kg/injection, schedule: Q04DX003 (ip), vehicle: saline 97 % of control

c1ccc(N=NNc2ccccc2)cc1
inactive: dose: 6.25 mg/kg/injection, schedule: Q01DX009 (ip), vehicle: saline with Tween-80 100 % of control | dose: 12.5 mg/kg/injection, schedule: Q01DX009 (ip), vehicle: saline with Tween-80 94 % of control | dose: 25.0 mg/kg/injection, schedule: Q01DX009 (ip), vehicle: saline with Tween-80 98 % of control

CCCc1ccc(O)c(O)c1
inactive: [1] 103 % of control | dose: 20.0 mg/kg/injection, schedule: Q01DX009 (ip), vehicle: saline 105 % of control | dose: 40.0 mg/kg/injection, schedule: Q01DX001 (ip), vehicle: saline 96 % of control | dose: 40.0 mg/kg/injection, schedule: Q01DX009 (ip), vehicle: saline 93 % of control | dose: 80.0 mg/kg/injection, schedule: Q01DX001 (ip), vehicle: saline 92 % of control

O=C(NCN1CCOCC1)Nc1ccc(Cl)cc1
inactive: dose: 25.0 mg/kg/injection, schedule: Q01DX009 (ip), vehicle: gum acacia 100 % of control | dose: 50.0 mg/kg/injection, schedule: Q01DX009 (ip), vehicle: gum acacia 91 % of control

O=C(O)CS(=O)(=O)c1ccccc1
inactive: [22] 95 % of control | [23] 105 % of control

O=[N+]([O-])c1cc(Cl)ccc1S(=O)(=O)F
inactive: [10] 103 % of control | [11] 94 % of control

[N-]=[N+]=C1Cc2ccccc2C1=O
inactive: [5] 103 % of control | [6] 102 % of control | [21] 100 % of control | [7] 105 % of control | [9] 92 % of control

N#CC1SCCCS1
inactive: dose: 50.0 mg/kg/injection, schedule: Q01DX001 (ip), vehicle: Klucel (hydroxypropylcellulose) (HPC) 104 % of control | dose: 100.0 mg/kg/injection, schedule: Q01DX001 (ip), vehicle: Klucel (hydroxypropylcellulose) (HPC) 105 % of control | [14] 101 % of control | dose: 200.0 mg/kg/injection, schedule: Q01DX001 (ip), vehicle: Klucel (hydroxypropylcellulose) (HPC) 96 % of control | [16] 108 % of control | [18] 108 % of control

CN(Nc1c([N+](=O)[O-])cc([N+](=O)[O-])cc1[N+](=O)[O-])c1cccc2ccccc12
inactive: dose: 50.0 mg/kg/injection, schedule: Q01DX009 (ip), vehicle: Klucel (hydroxypropylcellulose) (HPC) 106 % of control | [5] 97 % of control | [6] 98 % of control | [21] 97 % of control | [7] 98 % of control | [8] 102 % of control | [9] 90 % of control
